Reference: patent US20240131168A1, “NAPHTHALENE RING-CONTAINING COMPOUND, PHARMACEUTICAL COMPOSITION CONTAINING SAME, AND USE THEREOF” (JIANGSU YAHONG MEDITECH CO., LTD., priority 2021, published 2024)

Assays:
Type in all cases: cell-based
MDA-MB-231 = assay: CellTiter-Glo cell proliferation inhibition, MDA-MB-231; details: Homo sapiens, 144 h; MDA-MB-231 (CTG), 6 days, starting concentration 10 μM; read-out: IH % max (maximum inhibition percentage)
Excerpt: (§1) 1. Cell line • (1) Breast cancer cell lines and their culture media: • MCF-7 (ATCC; Cat. No.: HTB-22), a Luminal A breast cancer cell; • TamR-MCF-7 (ATCC; Cat. No.: CRL-3435), a breast cancer cell; • MCF-7 ER^D538G: a Luminal A breast cancer cell obtained by constructing MCF-7 (ATCC; Cat. No.: HTB-22) using CRISPR-Cas9 gene editing technology; • MCF-7 ER^Y537S: a Luminal A breast cancer cell obtained by constructing MCF-7 (ATCC; Cat. No.: HTB-22) using CRISPR-Cas9 gene editing technology; • MDA-MB-231: (manufacturer: Nanjing CoBioer Biosciences Co., Ltd.), a triple-negative breast cancer cell; • MDA-MB-468: (manufacturer: Nanjing CoBioer Biosciences Co., Ltd.), a triple-negative breast cancer cell.
(§2) Herein, the culture medium of MCF-7, TamR-MCF-7, MCF-7 ER^D538G, and MCF-7 ER^Y537S was EMEM; • the culture medium of MDA-MB-231 and MDA-MB-468 was DMEM.
(§3) 2. Reagents • Culture medium EMEM (Gibco, 1964507) • Culture medium DMEM (Gibco, 12430-054) • Fetal bovine serum (Gibco, 10091148) • Penicillin-streptomycin double antibody (Gibco, S110JV) • DPBS (Gibco, 14190-144) • CellTiter-Glo® assay kit (Promega, G7573) • Trypsin (0.25%) (Gibco, 25200-056) • DMSO (Sigma, D2650)
(§4) 3. Instruments • Biosafety cabinet (AIRTECH, BSC-1300A II) • Automated cell counter (Life Technologies, countess II) • Multifunctional microplate reader (Biotek, H1FM) • Orbital shaker (Hangzhou Allsheng Instruments Co., Ltd., OS-100) • XLFIT 5.3 (Inforstack Shanghai Co., Ltd.)
(§5) For this test method, the following experiments were performed in a biosafety cabinet, with the specific steps as follows: • (1) Cells were inoculated in a 96-well plate. One day later, the previous culture medium was poured off, 5 mL of DPBS was added to wash the cells, and then DPBS was pipetted and discarded. An appropriate amount of trypsin was then added. The plate was digested in a 37° C., 5% CO2 cell incubator for about 2 to 5 minutes and then taken out. Anew corresponding culture medium was added, and pipetted up and down to resuspend the cells evenly. The cells were then counted using an automated cell counter. • (2) Each cell was inoculated in columns 1 to 11 of a 96-well plate (Corning, Cat. No.: 3610) at a density of 1,000 or 2,000 cells per well in 100 μL of culture medium, and 100 μL of the corresponding culture medium without cells was added to the wells in column 12. The plate was then placed in a 37° C., 5% CO2 incubator for 24 hours. • (3) The compound of the present disclosure and the control drug fulvestrant (Selleck; Cat. No.: S1191) were then 4-fold serially diluted to 10 dose points starting at 10 μM. 10 μL of the serially diluted compound was pipetted and added to 100 μL of cells in columns 1 to 10, and 10 μL of the corresponding culture medium containing 0.33 v % DMSO was added to both columns 11 and 12. The plate was incubated in a 37° C., 5% CO2 incubator for 6 days or 72 hours (Note: column 11 was used as a MAX well with cells but without compound; column 12 was used as a MIN well without cells […]). • (4) The cell viability detection reagent in the CellTiter-Glo® assay kit was then added to the 96-well plate at 50 μL per well according to the instructions, and shaken on an orbital shaker in the dark for 5 to 10 minutes. The cell viability was then measured using a multifunctional microplate reader. Finally, the inhibition of cell proliferation by the compound of the present disclosure was plotted by XLFIT software, and the IC50 value (half inhibitory concentration) and the IH % max (maximum inhibition percentage) of the compound of the present disclosure were calculated.
Compounds D64 to D69 were tested for MDA-MB-231 (CTG) and MDA-MB-468 (CTG) with an incubation time of 72 hours in the incubator.

MCF-7 = assay: CellTiter-Glo cell proliferation inhibition, MCF-7 (Effect Example 2); details: Homo sapiens, MCF7, 144 h; MCF-7 (CTG), 6 days, starting concentration 10 μM; read-out: IH % max (maximum inhibition percentage)
How it was run: (§6)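 MCF-7, TamR-MCF-7, and CRISPR-edited MCF-7 ER D538G or Y537S cells were seeded at 1,000 or 2,000 cells/well in EMEM and cultured 24 h. They were then exposed to a 4-fold, 10-point series (top 10 µM before addition to wells) for 6 days or 72 h at 37 °C. CellTiter-Glo luminescence gave IC50 and maximum % inhibition.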

MCF-7 ER^D538G = assay: CellTiter-Glo cell proliferation inhibition, MCF-7 ER^D538G; details: Homo sapiens, MCF7, 144 h, MCF-7 ER^D538G (CTG), 6 days, starting concentration 10 μM; for inhibition at up to 10 µM: read-out: IH % max (maximum inhibition percentage)
How it was run: as §6

MDA-MB-468 = assay: CellTiter-Glo cell proliferation inhibition, MDA-MB-468; details: Homo sapiens, 144 h; MDA-MB-468 (CTG), 6 days, starting concentration 10 μM; read-out: IH % max (maximum inhibition percentage)
MCF-7 ER^Y537S = assay: CellTiter-Glo cell proliferation inhibition, MCF-7 ER^Y537S; details: Homo sapiens, MCF7, 144 h; MCF-7 ER^Y537S (CTG), 6 days, starting concentration 10 μM; read-out: IH % max (maximum inhibition percentage)
Excerpt: as §1, §2, §3, §4, §5

TamR-MCF-7 = assay: CellTiter-Glo cell proliferation inhibition, TamR-MCF-7; details: 144 h; TamR-MCF-7 (CTG), 6 days, starting concentration 10 μM; read-out: IH % max (maximum inhibition percentage)
Excerpt: as §1, §2, §3, §4, §5

With CCN(CCOCCOCCN1CCN(c2ccc3c(c2)C(=O)N(C2CCC(=O)NC2=O)C3)CC1)CCOc1ccc(Oc2c(-c3ccc(S(C)(=O)=O)cc3)ccc3cc(O)ccc23)cc1 (centres unmarked) [Compound D49] the inhibition at up to 10 µM (MDA-MB-231) was 97%, the inhibition at up to 10 µM (MCF-7) was 42% and the IC50 (MCF-7 ER^D538G) was 202 nM. The inhibition at up to 10 µM (MCF-7 ER^D538G) was 96%, the inhibition at up to 10 µM (MDA-MB-468) was 99% and the inhibition at up to 10 µM (MCF-7 ER^Y537S) was 86%. For the same molecule, the inhibition at up to 10 µM (TamR-MCF-7) was 42%.

In the case of CCN(CCOCCOc1ccc2c(c1)C(=O)N(C1CCC(=O)NC1=O)C2=O)CCOc1ccc(Oc2c(-c3ccc(S(C)(=O)=O)cc3)ccc3cc(O)ccc23)cc1 (centres unmarked) [Compound D23, 2-(2,6-dioxopiperidin-3-yl)-5-(2-(2-(ethyl(2-(4-((6-hydroxy-2-(4-(methylsulfonyl)phenyl)naphthalen-1-yl)oxy)phenoxy)ethyl)amino)ethoxy)ethoxy)isoindoline-1,3-dione], the inhibition at up to 10 µM (MDA-MB-231) is reported as 100%, the inhibition at up to 10 µM (MCF-7) is reported as 73% and the IC50 (MCF-7 ER^D538G) is reported as 230 nM. For the same molecule, the inhibition at up to 10 µM (MCF-7 ER^D538G) was 94%, the inhibition at up to 10 µM (MDA-MB-468) was 79% and the inhibition at up to 10 µM (MCF-7 ER^Y537S) was 96%. The inhibition at up to 10 µM (TamR-MCF-7) was 64%.

Molecule CCN(CCOc1ccc(Oc2c(-c3ccc(S(C)(=O)=O)cc3)ccc3cc(O)ccc23)cc1)C(=O)c1ccc(CCC2CCN(C3CCN(c4cccc5c4C(=O)N(C4CCC(=O)NC4=O)C5=O)CC3)CC2)cc1 (centres unmarked) [Compound D33, 4-(2-(1′-(2-(2,6-dioxopiperidin-3-yl)-1,3-dioxoisoindolin-4-yl)-[1,4′-bipiperidin]-4-yl)ethyl)-N-ethyl-N-(2-(4-((6-hydroxy-2-(4-(methylsulfonyl)phenyl)naphthalen-1-yl)oxy)phenoxy)ethyl)benzamide] has an inhibition at up to 10 µM (MDA-MB-231) of 57%, an inhibition at up to 10 µM (MCF-7) of 45% and an IC50 (MCF-7 ER^D538G) of 288 nM. For the same molecule, the inhibition at up to 10 µM (MCF-7 ER^D538G) was 92%, the inhibition at up to 10 µM (MDA-MB-468) was 94% and the inhibition at up to 10 µM (MCF-7 ER^Y537S) was 76%. It also gave an inhibition at up to 10 µM (TamR-MCF-7) of 45%.

Work on CCN(CCOCCOc1cccc2c1C(=O)N(C1CCC(=O)NC1=O)C2=O)CCOc1ccc(Oc2c(-c3ccc(S(C)(=O)=O)cc3)ccc3cc(O)ccc23)cc1 (centres unmarked) [Compound D18, 2-(2,6-dioxopiperidin-3-yl)-4-(2-(2-(ethyl(2-(4-((6-hydroxy-2-(4-(methylsulfonyl)phenyl)naphthalen-1-yl)oxy)phenoxy)ethyl)amino)ethoxy)ethoxy)isoindoline-1,3-dione] yielded an inhibition at up to 10 µM (MDA-MB-231) of 41%, an inhibition at up to 10 µM (MCF-7) of 39% and an inhibition at up to 10 µM (MCF-7 ER^D538G) of 81%. It also gave an inhibition at up to 10 µM (MCF-7 ER^Y537S) of 67%.

CCN(CCNc1cccc2c1CN(C1CCC(=O)NC1=O)C2=O)CCOc1ccc(Oc2c(-c3ccc(S(C)(=O)=O)cc3)ccc3cc(O)ccc23)cc1 (centres unmarked) [Compound D17, 3-(4-((2-(ethyl(2-(4-((6-hydroxy-2-(4-(methylsulfonyl)phenyl)naphthalen-1-yl)oxy)phenoxy)ethyl)amino)ethyl)amino)-1-oxoisoindolin-2-yl)piperidine-2,6-dione] showed an inhibition at up to 10 µM (MDA-MB-231) of 87%, an inhibition at up to 10 µM (MCF-7) of 58% and an inhibition at up to 10 µM (MCF-7 ER^D538G) of 86%. It also gave an inhibition at up to 10 µM (MCF-7 ER^Y537S) of 77% and an inhibition at up to 10 µM (TamR-MCF-7) of 39%.

With CCN(CCOCCOCC(=O)N1CCN(c2cccc3c2CN(C2CCC(=O)NC2=O)C3=O)CC1)CCOc1ccc(Oc2c(-c3ccc(S(C)(=O)=O)cc3)ccc3cc(O)ccc23)cc1 (centres unmarked) [Compound D47] the inhibition at up to 10 µM (MDA-MB-231) was 83%, the inhibition at up to 10 µM (MCF-7) was 31% and the IC50 (MCF-7 ER^D538G) was 830 nM. The inhibition at up to 10 µM (MCF-7 ER^D538G) was 89%, the inhibition at up to 10 µM (MDA-MB-468) was 94% and the inhibition at up to 10 µM (MCF-7 ER^Y537S) was 73%.

With C[C@@H]1CN(CCOCC(=O)Nc2cccc3c2CN(C2CCC(=O)NC2=O)C3=O)[C@@H](C)CN1CCOc1ccc(Oc2c(-c3ccc(S(C)(=O)=O)cc3)ccc3cc(O)ccc23)cc1 (stereo partly drawn) [Compound D25, N-(2-(2,6-dioxopiperidin-3-yl)-1-oxoisoindolin-4-yl)-2-(2-((2S,5R)-4-(2-(4-((6-hydroxy-2-(4-(methylsulfonyl)phenyl)naphthalen-1-yl)oxy)phenoxy)ethyl)-2,5-dimethylpiperazin-1-yl)ethoxy)acetamide] the inhibition at up to 10 µM (MDA-MB-231) was 53%, the inhibition at up to 10 µM (MCF-7) was 62% and the inhibition at up to 10 µM (MCF-7 ER^D538G) was 86%. For the same molecule, the inhibition at up to 10 µM (MDA-MB-468) was 96% and the inhibition at up to 10 µM (MCF-7 ER^Y537S) was 59%.
